Assay results as given in patent publication US20090285836A1 (NEREUS PHARMACEUTICALS, INC., priority 2008, published 2009).
Converted amounts (≈) assume the structure as drawn.

What was measured:
DU-145 cells [1] = assay: in vitro cell migration assay; format: cell-based, human; settings: DU-145, 100 ng/ml TNF-α
Experimental: (§1) The functional significance of the NPI-0052-induced changes in the expression profiles of the above metastasis-related gene products was expected to be reflected in the migratory and invasive cell properties.
(§2) In vitro cell invasion and migration assays were performed using the 24/well BD Biocoat 3 micron migration chambers or 8 micron Matrigel invasion chambers (Becton Dickinson Labware, Bedford, Mass.), respectively, according to manufacturer's instructions. For both assays, cells were starved for 4-5 h prior to setting up the assay by adding basal medium supplemented with 0.1% BSA. RPMI 1640 medium containing 10% serum was used as chemoatractant. […] Data were expressed as the fold cell migration derived from the mean RFU of cell migration through the membrane towards FBS divided by the mean RFU of cell migration in the absence of FBS. […] Invaded cells through Matrigel were counted under the microscope at 40× magnification. Data were expressed as the percent invasion through the Matrigel Matrix and membrane relative to the migration through the control insert membrane.
(§3) For migratory assays, 10^5 cells were seeded in the upper chamber, while in the lower chamber RPMI 1640 containing 10% FBS was added. […] Only labeled cells that had migrated through the pores of the membrane were detected. […]

DU-145 cells [2] = assay: in vitro Matrigel cell invasion assay; format: cell-based, human; settings: DU-145, 100 ng/ml TNF-α
Experimental: as §1, §2, §3

MDA-MB-435 breast cancer = settings: read-out: LC50; cited from earlier work
DU-145 cells [3] = assay: drug titration, trypan blue exclusion assay; format: cell-based, human
[4] = system: HCT-116 human colon carcinoma; settings: cited from earlier work
[5] = system: National Cancer Institute's 60-cell-line panel; settings: cited from earlier work
SF-539 CNS cancer = settings: read-out: LC50; cited from earlier work
SK-MEL-28 melanoma = settings: read-out: LC50; cited from earlier work
[6] = system: human colony-forming assays; settings: single agent; cited from earlier work
[7] = single agent, mice models; cited from earlier work
Snail = Snail expression (RT-PCR, Western blot); settings: DU-145, 5 or 10 μg/ml DHMEQ, 24 h, Western blot (FIG. 21D)
Experimental: (§4) DU-145 cells were treated with 5 or 10 μg/ml DHMEQ and protein lysates were harvested 24 h after treatment for RKIP and Snail protein determination by Western blot.

RKIP = RKIP expression (RT-PCR, Western blot); settings: DU-145, 5 or 10 μg/ml DHMEQ, 24 h, Western blot (FIG. 21D)
Experimental: RKIP transcript levels were determined by RT-PCR for each time point tested (0-12 h). Normalized mRNA values were derived by dividing the mRNA value of each target gene with the corresponding quantity of GAPDH mRNA. Statistical analysis was performed using the Mann-Whitney U test. P values: treated vs untreated cells. The data represent the mean values±SEM from three independent experiments. […] Protein levels were also determined. Protein lysates were harvested at various time points and subjected to Western Blot analysis for RKIP protein. Actin was used as an internal control for loading. Blots are representative of three independent and reproducible experiments.
as §4

YY1 = YY1 promoter luciferase reporter and YY1 expression; format: cell-based; settings: pYY1-luciferase reporter (FIG. 11A)
Excerpt: TRAIL is produced by immune cells, and is a ligand for death receptors DR4, DR5, DcR1, and DcR2. […] Controls included untransfected (UNT) and DMSO. […] RKIP may have a direct role in the NPI-0052-induced sensitization to TRAIL. […] RKIP overexpression results in DR5 upregulation and cell sensitization to TRAIL-mediated apoptosis. YY1 acts as a suppressor of DR5 transcription and is positively regulated by NF-κB. […] Transfection controls include medium only and siRNA negative control. YY1 has a direct role in tumor sensitization to TRAIL apoptosis. […] Controls include transfected with the YY1-lucificerase reporter construct only, and cells treated with 10 μg/ml DHMEQ only. […] CMV-RKIP inhibited both mRNA transcription and protein expression of YY1. YY1 is inhibited by RKIP overexpression via NF-κB down-regulation.

TNF-α
augmentation of migration compared to untreated cells (DU-145 cells [1]): ~10 fold
augmentation of invasion compared to untreated cells (DU-145 cells [2]): ~10 fold

C[C@@]12OC(=O)[C@]1([C@@H](O)[C@@H]1C=CCCC1)NC(=O)[C@@H]2CCCl [NPI-0052, Salinosporamide A]
CC50 (MDA-MB-435 breast cancer): < 10 nM
ID20 drug concentration (subtoxic concentration) (DU-145 cells [3]): 50 nM
IC50, in vitro cytotoxicity [4]: 0.011 µg/mL (≈ 0.0351 µM)
LC50 differential between resistant and susceptible cell lines [5]: greater than 4 log
CC50 (SF-539 CNS cancer): < 10 nM
CC50 (SK-MEL-28 melanoma): < 10 nM
toxicity in human colony-forming assays [6]: limited toxicity
tolerance in vivo [7]: good tolerance

O=C(NC1=CC(=O)[C@H]2O[C@H]2[C@H]1O)c1ccccc1O [DHMEQ]
Snail protein (Snail): Snail suppression
RKIP protein (RKIP): RKIP induction
YY1 promoter luciferase activity (YY1): inhibited YY1 luciferase activity
